# Experimental data published in PubChem BioAssay (NCI).
# Several values for one entry are separate records, joined by “and”; a condition that tells them apart may be missing. Equal values may be shown once.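 96-well plates; 48 h exposure; 5 concentrations. Endpoints by linear interpolation between flanking doses. Not reached: highest tested concentration assigned. GI50: concentration for 50% inhibition of growth. TGI: concentration producing complete growth inhibition.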
# Experiments:
# Assay in all cases: inhibition of tumour cell growth, NCI panel, 48 h
# BT-549 breast = system: BT-549 breast
# HOP-18 NSCLC = system: HOP-18 NSCLC
# SNB-75 CNS = system: SNB-75 CNS
# MCF7 breast = system: MCF7 breast
# UO-31 renal = system: UO-31 renal
# HT29 colon = system: HT29 colon
# CCRF-CEM leukemia = system: CCRF-CEM leukemia
# T-47D breast = system: T-47D breast
# EKVX NSCLC = system: EKVX NSCLC
# DU-145 prostate = system: DU-145 prostate
# SF-268 CNS = system: SF-268 CNS
# M14 melanoma = system: M14 melanoma
# RPMI-8226 leukemia = system: RPMI-8226 leukemia
# SF-539 CNS = system: SF-539 CNS
# MDA-MB-435 = system: MDA-MB-435
# LOX IMVI melanoma = system: LOX IMVI melanoma
# 786-0 renal = system: 786-0 renal
# SK-MEL-2 melanoma = system: SK-MEL-2 melanoma
# ACHN renal = system: ACHN renal
# MALME-3M melanoma = system: MALME-3M melanoma
# PC-3 prostate = system: PC-3 prostate
# HL-60(TB) leukemia = system: HL-60(TB) leukemia
# UACC-62 melanoma = system: UACC-62 melanoma
# IGROV1 ovarian = system: IGROV1 ovarian
# NCI-H23 lung = system: NCI-H23 lung
# SN12C renal = system: SN12C renal
# HOP-92 NSCLC = system: HOP-92 NSCLC
# DMS 114 small cell lung = system: DMS 114 small cell lung
# DLD-1 colon = system: DLD-1 colon
# LXFL 529 NSCLC = system: LXFL 529 NSCLC
# SW-620 colon = system: SW-620 colon
# HS 578T breast = system: HS 578T breast
# KM20L2 colon = system: KM20L2 colon
# DMS 273 small cell lung = system: DMS 273 small cell lung
smiles,measurement,setting,value
CCOc1ccc(NCc2cc(OC)c(OC)c(OC)c2)cc1,TGI,BT-549 breast,> 100 µM
same,GI50,HOP-18 NSCLC,2.46 µM and 10.2 µM
same,TGI,HOP-18 NSCLC,> 100 µM
same,TGI,SNB-75 CNS,> 100 µM
same,TGI,MCF7 breast,> 100 µM
same,TGI,UO-31 renal,> 100 µM
same,TGI,HT29 colon,8.98 µM and 11.8 µM
same,GI50,CCRF-CEM leukemia,0.759 µM and 1.7 µM
same,TGI,CCRF-CEM leukemia,> 74.9 µM
same,GI50,T-47D breast,1.66 µM and 4.48 µM
same,TGI,T-47D breast,> 100 µM
same,TGI,EKVX NSCLC,> 100 µM
same,TGI,DU-145 prostate,> 100 µM
same,TGI,SF-268 CNS,> 100 µM
same,TGI,M14 melanoma,> 100 µM
same,TGI,RPMI-8226 leukemia,57 µM and > 74.6 µM
same,TGI,SF-539 CNS,2.95 µM and 3.25 µM
same,GI50,MDA-MB-435,0.0789 µM and 0.0919 µM
same,TGI,MDA-MB-435,> 100 µM
same,TGI,LOX IMVI melanoma,> 84 µM
same,TGI,786-0 renal,> 100 µM
same,GI50,SK-MEL-2 melanoma,2.22 µM and 0.429 µM
same,TGI,SK-MEL-2 melanoma,> 100 µM
same,TGI,ACHN renal,> 100 µM
same,TGI,MALME-3M melanoma,> 100 µM
same,TGI,PC-3 prostate,> 100 µM
same,TGI,HL-60(TB) leukemia,19.2 µM and 33.8 µM
same,TGI,UACC-62 melanoma,> 100 µM
same,TGI,IGROV1 ovarian,> 84 µM
same,TGI,NCI-H23 lung,31.4 µM and 39.3 µM
same,GI50,SN12C renal,1.41 µM and 7.91 µM
same,TGI,SN12C renal,> 100 µM
same,TGI,HOP-92 NSCLC,> 91.6 µM
same,TGI,DMS 114 small cell lung,3.17 µM and 20 µM
same,TGI,DLD-1 colon,> 100 µM
same,GI50,LXFL 529 NSCLC,0.839 µM and 2.67 µM
same,TGI,LXFL 529 NSCLC,> 100 µM
same,TGI,SW-620 colon,> 100 µM
same,GI50,HS 578T breast,0.823 µM
same,TGI,HS 578T breast,> 100 µM
same,TGI,KM20L2 colon,1.79 µM and 3.09 µM
same,GI50,DMS 273 small cell lung,0.296 µM and 0.821 µM
